In ChEMBL document CHEMBL1201862, “PubChem BioAssay data set” (2004):
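96-well plates; 48 h exposure; 5 concentrations. Endpoints by linear interpolation between flanking doses. Not reached: highest tested concentration assigned. Here, GI50 denotes the concentration required for 50% inhibition of growth.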 Activity calls are given as the source filed them. Rule as the data show it: active = GI50 up to about 1.1 µM and inactive = higher.

What was measured:
Assay in all cases: NCI-60 cell line screen, 48 h
[1] = test system: DLD-1
[2] = test system: DMS-114
[3] = test system: DMS-273
[4] = test system: KM-20L2
[5] = test system: LXFL 529
[6] = test system: M19-MEL
[7] = test system: RXF 631
[8] = test system: SNB-78
[9] = test system: HOP-18

Measured: GI50

O=C(CC1(O)C(=O)Nc2ccccc21)c1ccccc1O (centres undefined)
inactive: [1] > 100 µM | [2] > 100 µM | [3] > 100 µM | [4] > 100 µM | [5] > 100 µM | [6] > 100 µM | [7] > 100 µM | [8] > 100 µM

O=C(c1cc(=O)c2ccc(O)cc2o1)c1ccc(Cl)cc1Cl
inactive: [1] 17.4 µM | [2] 3.92 µM | [3] 3.89 µM | [9] 29.4 µM | [4] 10.6 µM | [6] 13.8 µM | [7] 11.1 µM | [8] 31.3 µM

Cc1nc2c(n1C(C)(C)C)C(=O)c1ccccc1C2=O
inactive: [1] 87.3 µM | [3] 52.8 µM | [4] 51.5 µM | [5] 67.9 µM | [6] 24.8 µM | [8] > 100 µM

O=C(O)c1ccccc1C(=O)c1ccco1
inactive: [1] > 100 µM | [2] > 100 µM | [3] > 100 µM | [9] > 100 µM | [4] > 100 µM | [6] > 100 µM | [8] > 100 µM

CC1=CC(C)(c2c[nH]c3ccccc23)CC(C)(C)c2c1[nH]c1ccccc21 (centres undefined)
inactive: [1] 13.7 µM | [2] 14.9 µM | [9] > 100 µM | [4] 14.8 µM | [5] 30.1 µM | [6] 19.7 µM | [7] 14.5 µM | [8] 28.2 µM

NC(=O)C12CC3CC(CC(Br)(C3)C1)C2
inactive: [1] > 100 µM | [2] > 100 µM | [3] > 100 µM | [9] > 100 µM | [4] > 100 µM | [5] > 100 µM | [7] > 100 µM | [8] > 100 µM

CC12OOC(c3ccccc31)c1c2ccc2ccccc12 (centres undefined)
inactive: [1] 1.45 µM | [3] 8.69 µM | [9] 1.86 µM | [4] 3.66 µM | [5] 2.04 µM | [6] 3.13 µM | [7] 8.04 µM | [8] 4.11 µM
active: [2] 0.885 µM

O=C(OCc1ccccc1)N1N=NC2C1C1CC(OCc3ccccc3)(OCc3ccccc3)C2O1 (centres undefined)
inactive: [1] > 100 µM | [3] > 100 µM | [9] > 100 µM | [4] > 100 µM | [5] > 100 µM | [6] > 100 µM | [8] > 100 µM

O=C1c2ccccc2C(=O)c2c1ccc1c3ccccc3n(Cc3ccccc3)c21
inactive: [1] > 100 µM | [2] > 100 µM | [5] > 100 µM | [6] 88.7 µM
active: [9] 0.0319 µM

C[C@@H](O)CCC(=O)c1ccoc1
inactive: [1] > 100 µM | [2] > 100 µM | [3] > 100 µM | [9] > 100 µM | [4] > 100 µM | [5] > 100 µM | [6] > 100 µM | [8] > 100 µM

Cc1cc(N(CCC#N)CCC#N)ccc1/C=N\c1ccc(C(=O)NN2C(=O)/C(=C/c3ccc(N(CCC#N)CCC#N)cc3)N=C2c2cc([N+](=O)[O-])ccc2Cl)cc1
inactive: [1] 78.9 µM | [2] > 100 µM | [3] 47.6 µM | [9] 5.4 µM | [4] 67.1 µM | [5] 71.6 µM | [6] > 100 µM | [7] > 100 µM | [8] > 100 µM

CC1(Sc2ccccc2)CN(Cc2ccccc2)C1=O (centres undefined)
inactive: [1] > 100 µM | [2] 45.6 µM | [3] > 100 µM | [9] > 100 µM | [4] > 100 µM | [6] > 100 µM | [7] > 100 µM | [8] > 100 µM

C[C@]12CC/C(=N\OC(=O)Nc3ccccc3)C=C1CC[C@@H]1C2CC[C@@]2(C)C1CC[C@@H]2OC(=O)Nc1ccccc1 (some centres undefined)
inactive: [2] 23.2 µM | [3] > 100 µM | [9] > 100 µM | [4] > 100 µM | [5] 15.5 µM | [6] 66.4 µM | [8] > 100 µM

COC(=O)n1c(C[P+](c2ccccc2)(c2ccccc2)c2ccccc2)cc2ccccc21
inactive: [4] 1.94 µM | [8] 3.37 µM
active: [1] 1.06 µM | [2] 1.09 µM | [3] 0.697 µM | [5] 0.372 µM | [6] 0.452 µM

O/N=C1/C(=C/c2ccccc2)CCCC1C(NO)c1ccccc1 (centres undefined)
inactive: [2] 30.7 µM | [3] > 100 µM | [9] > 100 µM | [4] > 100 µM | [5] 49.1 µM | [6] 68.4 µM | [7] > 100 µM | [8] 50.6 µM

COc1ccc(C)cc1-c1cc(Sc2ccccc2)c(-c2cc(C)ccc2OC)o1
inactive: [1] > 31.6 µM | [2] > 31.6 µM | [3] > 31.6 µM | [9] > 31.6 µM | [4] > 31.6 µM | [5] > 31.6 µM | [6] > 31.6 µM | [7] > 31.6 µM | [8] > 31.6 µM

COc1cc(Nc2nc3cc(C)ccc3nc2-c2ccccc2)cc(OC)c1OC
inactive: [2] 6.9 µM | [3] 11.8 µM | [9] 24.3 µM | [4] 30.5 µM | [5] 39.7 µM | [6] 24.2 µM

CC(C)[C@H]1CO[C@]2(C)[C@@H]3CN(Cc4ccccc4)C[C@@H]3C(=O)N12
inactive: [1] > 100 µM | [2] > 100 µM | [3] > 100 µM | [9] > 100 µM | [4] > 100 µM | [5] > 100 µM | [6] > 100 µM

CN(C)c1n/c(=N/c2cccc(Cl)c2)ss1
inactive: [1] 12.1 µM | [2] 11.2 µM | [3] 13 µM | [9] > 100 µM | [4] 17.4 µM | [5] 7.14 µM | [6] 17.1 µM | [7] 13.5 µM | [8] 18.1 µM
